The NIST ThermoML archive (doi:10.1021/je0603325)

Test: xn = mol fraction of the nth substance listed
Conditions: 101 kPa, Liquid

BrCCBr [1,2-dibromoethane] + CCCCCCC
Conditions | mass density [kg/m3] | speed of sound [m/s]
292.6 K, x1 = 0.6005 | – | 996.77
292.62 K, x1 = 0.2 | – | 1079.5
292.64 K, x1 = 0.1024 | – | 1112.1
292.64 K, x1 = 0.2986 | – | 1050.8
292.66 K, x1 = 0.6997 | – | 989.87
292.68 K, x1 = 0.4002 | – | 1027.2
292.68 K, x1 = 0.8004 | – | 989.25
292.7 K, x1 = 0.4996 | – | 1009.4
292.7 K, x1 = 0.9061 | – | 995.84
292.84 K, x1 = 1 | – | 1007.5
293.15 K, x1 = 0.1018 | 776.01 | –
293.15 K, x1 = 0.2052 | 878.46 | –
293.15 K, x1 = 0.2931 | 973.9 | –
293.15 K, x1 = 0.3754 | 1070.54 | –
293.15 K, x1 = 0.3919 | 1091.09 | –
293.15 K, x1 = 0.5009 | 1234.71 | –
293.15 K, x1 = 0.5993 | 1379.31 | –
293.15 K, x1 = 0.6916 | 1530.51 | –
293.15 K, x1 = 0.7886 | 1707.97 | –
293.15 K, x1 = 0.8919 | 1922 | –
293.15 K, x1 = 1 | 2178.77 | –
298.15 K, x1 = 0.1018 | 771.16 | –
298.15 K, x1 = 0.2052 | 872.98 | –
298.15 K, x1 = 0.2931 | 968 | –
298.15 K, x1 = 0.3754 | 1064.3 | –
298.15 K, x1 = 0.3919 | 1084.74 | –
298.15 K, x1 = 0.5009 | 1227.73 | –
298.15 K, x1 = 0.5993 | 1372.04 | –
298.15 K, x1 = 0.6916 | 1522.49 | –
298.15 K, x1 = 0.7886 | 1699.34 | –
298.15 K, x1 = 0.8919 | 1912.55 | –
298.15 K, x1 = 1 | 2168.41 | –
298.56 K, x1 = 0.1024 | – | 1088
298.56 K, x1 = 0.9061 | – | 980
298.58 K, x1 = 0.2 | – | 1056.5
298.59 K, x1 = 0.4996 | – | 990.17
298.59 K, x1 = 0.6005 | – | 978.03
298.6 K, x1 = 0.4002 | – | 1006.7
298.6 K, x1 = 0.6997 | – | 972.29
298.68 K, x1 = 0.8004 | – | 972.17
298.69 K, x1 = 0.2986 | – | 1028.6
299.17 K, x1 = 1 | – | 991.14
303.15 K, x1 = 0.1018 | 766.4 | –
303.15 K, x1 = 0.2052 | 867.72 | –
303.15 K, x1 = 0.2931 | 962.23 | –
303.15 K, x1 = 0.3754 | 1058 | –
303.15 K, x1 = 0.3919 | 1078.36 | –
303.15 K, x1 = 0.5009 | 1220.93 | –
303.15 K, x1 = 0.5993 | 1364.69 | –
303.15 K, x1 = 0.6916 | 1514.35 | –
303.15 K, x1 = 0.7886 | 1690.56 | –
303.15 K, x1 = 0.8919 | 1903.13 | –
303.15 K, x1 = 1 | 2157.94 | –
303.37 K, x1 = 1 | – | 980.18
303.54 K, x1 = 0.4002 | – | 989.74
303.57 K, x1 = 0.9061 | – | 966.53
303.59 K, x1 = 0.1024 | – | 1067.7
303.61 K, x1 = 0.2 | – | 1037.2
303.61 K, x1 = 0.6997 | – | 957.6
303.62 K, x1 = 0.6005 | – | 962.51
303.65 K, x1 = 0.2986 | – | 1010.6
303.66 K, x1 = 0.4996 | – | 973.72
303.78 K, x1 = 0.8004 | – | 957.87
308.15 K, x1 = 0.1018 | 761.38 | –
308.15 K, x1 = 0.2052 | 862.14 | –
308.15 K, x1 = 0.2931 | 956.31 | –
308.15 K, x1 = 0.3754 | 1051.8 | –
308.15 K, x1 = 0.3919 | 1071.93 | –
308.15 K, x1 = 0.5009 | 1213.97 | –
308.15 K, x1 = 0.5993 | 1357.19 | –
308.15 K, x1 = 0.6916 | 1506.3 | –
308.15 K, x1 = 0.7886 | 1681.76 | –
308.15 K, x1 = 0.8919 | 1893.55 | –
308.15 K, x1 = 1 | 2147.47 | –
308.44 K, x1 = 0.9061 | – | 953.47
308.57 K, x1 = 0.6997 | – | 943.03
308.58 K, x1 = 0.4002 | – | 972.63
308.59 K, x1 = 0.6005 | – | 947.22
308.59 K, x1 = 0.8004 | – | 944.46
308.62 K, x1 = 0.1024 | – | 1047.4
308.62 K, x1 = 0.2986 | – | 992.63
308.65 K, x1 = 0.2 | – | 1018
308.75 K, x1 = 1 | – | 966.56
309.57 K, x1 = 0.4996 | – | 954.55
313.15 K, x1 = 0.1018 | 756.39 | –
313.15 K, x1 = 0.2052 | 856.68 | –
313.15 K, x1 = 0.2931 | 950.37 | –
313.15 K, x1 = 0.3754 | 1045.35 | –
313.15 K, x1 = 0.3919 | 1065.57 | –
313.15 K, x1 = 0.5009 | 1207.14 | –
313.15 K, x1 = 0.5993 | 1349.51 | –
313.15 K, x1 = 0.6916 | 1498.2 | –
313.15 K, x1 = 0.7886 | 1673.14 | –
313.15 K, x1 = 0.8919 | 1884.12 | –
313.15 K, x1 = 1 | 2136.96 | –
314.45 K, x1 = 1 | – | 952
314.52 K, x1 = 0.9061 | – | 937.35
314.55 K, x1 = 0.6997 | – | 925.53
314.56 K, x1 = 0.2 | – | 995.72
314.58 K, x1 = 0.4002 | – | 952.25
314.58 K, x1 = 0.8004 | – | 927.74
314.59 K, x1 = 0.1024 | – | 1023.6
314.59 K, x1 = 0.4996 | – | 938.54
314.59 K, x1 = 0.6005 | – | 928.96
314.61 K, x1 = 0.2986 | – | 971.18
